One data set concerns the target T1, LTB-4 receptor (Homo sapiens, UniProt Q15722).
T1 construct: Final neutrophil was dispersed to 3×10^7 cell/ml in HBSS media and used for measuring the antagonizing action for LTB-4 receptor; endogenous in cells; host or cells: neutrophils from human whole blood
In words: Antagonizing action for LTB-4 receptor ([3H]-LTB-4 binding to human neutrophils). The following applies: for inhibition at 0.01 µM: 10 nM, read-out: Degree of inhibition (%) 10 nM; for inhibition at 0.01 µM / inhibition at 0.1 µM / inhibition at 1 µM: inhibition of selective [3H]-LTB-4 binding, human neutrophils; for inhibition at 0.1 µM: 100 nM, read-out: Degree of inhibition (%) 100 nM; for inhibition at 1 µM: read-out: Degree of inhibition (%) 1 μM. The procedure: Neutrophil was separated from whole blood of human by precipitation using "Dextran T-500", and by the inclined centrifugation with Ficoll/Paque (Pharmacia Co.) Boyum, Scan. J. Clin. Lab. Invest., 21 suppl.
Mixed erythrocyte was removed by hemolysis of hypotonic solution. Final neutrophil was dispersed to 3×10^7 cell/ml in HBSS media and used for measuring the antagonizing action for LTB-4 receptor.
0.5 nM of [^3 H]-LTB-4 (200 Ci/mmol), test sample to measure the antagonizing action for LTB-4 receptor, and cell dispersed in HBSS media was added to 12 mm×75 mm of polyethylene tube (final volume: 200 μl), and left in ice bath for 45 minutes.
To separate [^3 H]-LTB-4 bound to neutrophil and isolated [^3 H]-LTB-4 not bound to neutrophil, the above mixture was filtered through GF/C filter (made by Wattman Co.). Filter paper was washed with pH 7.4 of cold Tris-buffer solution (5 ml) for 3 times, dried, and measured radioactivity. The selective binding of LTB-4 to neutrophil can be detected by the difference between radioactivities without antagonist in case that LTB-4 was totally bound to neutrophil, and that LTB-4 was bound to neutrophil in addition of radioisotope-unlabeled LTB-4 1000 times.

The conditions of data set [1]: reported in the literature; cited from earlier work.
The subject of data set [2] is cells of calvariae of fetal rat (bonelike nodule forming). As to the kind of experiment: Bonelike nodule forming in cultured fetal rat calvaria cells. The following applies: for Area of nodule (mm^2): control 0.12 ± 0.026; for Number of nodule (No.): control 10.04 ± 1.23. Format: cell-based. Here is the method: Approximately 30 of calvariae of fetal rat, removed all the tissue, was dissolved in 5 ml sterilized colagenase (0.1%) and trypsin solution (0.05%) at 37° C. 20 Minutes after dissolving, the released cells were collected, and hereto was added fetal serum to the same amount. This procedure was carried out for 3-6 times in every 20 minutes to collect the isolated cells. Collected cells were separated by centrifugation ([…]) for 5 minutes and it was suspended in α-MEM media, containing 10% (v/v) fetal bovine serum. Collected cells were cultivated in petri dish for 2-3 days, then separated with trypsin, and it were placed in 96 wells to 2.0×10^3 cells/100 μl in each well.
After cultivating the cells for 2-3 days, the media were changed to 5% fetal calf serum, 150 μg/ml ascorbic acid and 5 mM β-glycerophosphate, plus or minus sample (HS-1141). The control was in wells without the sample, and this time was arbitrarily set as […]. Formed nodule was analyzed with image analyzer (Biorad Co., U.S.A.); camcorder (SONY Co.); and microscope (Leitz Co.).

These results are taken from US6150390A, “3-amino-1,2-benzoisoxazole derivatives, process for preparation, and use thereof” (Dong Wha Pharm. Ind. Co., Ltd., priority 1997, dated 2000).

The IC50 is the concentration that gives 50% inhibition. By inhibition is commonly meant the percentage by which the read-out fell short of the control.

Read-outs that look alike come from different tables or passages of the source.

T1 sequence (Q15722 whole entry): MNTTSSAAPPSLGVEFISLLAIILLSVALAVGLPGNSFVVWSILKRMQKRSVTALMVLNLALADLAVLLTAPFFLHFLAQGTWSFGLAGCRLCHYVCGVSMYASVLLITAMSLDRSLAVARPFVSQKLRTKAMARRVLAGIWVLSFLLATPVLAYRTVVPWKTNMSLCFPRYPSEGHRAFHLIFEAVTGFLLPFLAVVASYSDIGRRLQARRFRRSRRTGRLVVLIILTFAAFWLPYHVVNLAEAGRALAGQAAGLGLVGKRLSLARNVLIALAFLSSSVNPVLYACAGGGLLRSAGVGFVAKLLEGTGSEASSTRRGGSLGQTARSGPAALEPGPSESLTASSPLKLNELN

For `COc1cc(C(=O)N(C(C)C)C(C)C)ccc1OCCCCCOc1ccc(C(=N)N)cc1` [CGS-25019C, reference compound], at LTB-4 receptor, the IC50 turned out to be 0.08 µM, the inhibition at 0.01 µM is 11%, the inhibition at 0.1 µM is 68% and the inhibition at 1 µM came to 97%. Besides, in data set [1], the “toxicity to stimulate stomach and intestine” value is “toxicity to stimulate stomach and intestine”.
Consider `COc1cc(C(=O)N(C(C)C)C(C)C)ccc1OCCCCCOc1ccc2c(N)noc2c1` [HS-1132, N,N-diisopropyl-4-[5-(3-aminobenzo[d]isoxazol-6-yloxy)pentoxy]-3-methoxybenzamide], for which, at LTB-4 receptor, the inhibition at 0.01 µM is below 10%, the inhibition at 0.1 µM was 10% and the inhibition at 1 µM is 90%.
`COc1cc(C(=O)N(C(C)C)C(C)C)ccc1OCCCCOc1ccc2c(N)noc2c1` [HS-1141, N,N-diisopropyl-4-[4-(3-aminobenzo[d]isoxazol-6-yloxy)butoxy]-3-methoxybenzamide]: at LTB-4 receptor, the inhibition at 0.01 µM was 64%. On LTB-4 receptor, the inhibition at 0.1 µM is 95%. Further, the inhibition at 1 µM at LTB-4 receptor worked out at 99%. In addition, the “effect of antagonizing action for LTB-4 receptor compared with CGS-25019C” value at LTB-4 receptor (compared with known compound CGS-25019C) is reported as “better”. The IC50 at LTB-4 receptor (concentration of 50% of antagonizing in binding to receptor, read-out: IC50) stood at 0.007 µM. Moreover, the “Area of nodule (mm^2)” value in data set [2] (10-11 M) worked out at 0.342 ± 0.065 mm^2; in data set [2] (10^-8 M), 0.273 ± 0.019 mm^2; in data set [2] (10^-9 M), 0.379 ± 0.068 mm^2; in data set [2] (10^-10 M) it was 0.320 ± 0.082 mm^2. Also, the “Number of nodule (No.)” value in data set [2] (10-11 M) stood at 25.67 ± 3.54 No; in data set [2] (10^-8 M) it was 22.80 ± 4.71 No; in data set [2] (10^-9 M), 24.00 ± 4.04 No; in data set [2] (10^-10 M) it was 19.40 ± 1.29 No. The “increase of remodeling of bonelike nodule” value in data set [2] (from Table II, versus control) is above 2 times.
As to `COc1cc(C(=O)N(C(C)C)C(C)C)ccc1OCCCOc1ccc2c(N)noc2c1` [HS-1151, N,N-diisopropyl-4-[3-(3-aminobenzo[d]isoxazol-6-yloxy)propoxy]-3-methoxybenzamide], at LTB-4 receptor, the inhibition at 0.01 µM is below 10%, the inhibition at 0.1 µM stood at 37% and the inhibition at 1 µM stood at 92%.
